# Reference: patent US20220339214A1, “KIRIN FRUIT FERMENTATION AND METHODS FOR IMPROVING METABOLISM BY USING THE SAME” (TCI CO., LTD., priority 2021, published 2022)
# Key:
# mouse myoblasts C2C12 [1] = test: Activity of mitochondria in skeletal muscle cells affected by active substances (fluorescence picture); format: cell-based; conditions: 100 nM, 24 h, compared with blank group
# Protocol: The experimental medium was removed from the culture plate, and the culture plate was washed with 1 mL of 1×PBS for two times. […] was added into each well to react for 5 min in the dark. After the reaction was completed, a cell medium was added to stop the reaction. The cells and cell medium in each well were collected in a 1.5 mL centrifuge tube, and the centrifuge tube containing the cells and cell medium was centrifuged at 400×g for 5 min. After the centrifugation, a supernatant was removed. The cells were washed with 1×DPBS, and then the centrifuge tube containing the cells was centrifuged again at 400×g for 5 min. After the centrifugation again, a supernatant was removed from each centrifuge tube, and 100 μL of JC-1 dye was added into each centrifuge tube and left to stand for 15 min in the dark. After 15 min, each centrifuge tube was centrifuged at 400×g for 5 min. […] Finally, the fluorescence signal of the to-be-tested cell solution in each well was measured by the flow cytometry (excitation light: 488 nip and scattered light: 527 nm & 590 nm), and the membrane potential of mitochondria was calculated, to analyze the activity of mitochondria. […] Finally, a picture of the fluorescence signal of the to-be-tested cell solution was taken by a. camera to observe the activity of mitochondria.
# mouse myoblasts C2C12 [2] = test: Proliferation of skeletal muscle cells (Click-iT Plus EdU, flow cytometry); format: cell-based; conditions: 24 h
# From the text: Experimental cell strain: mouse myoblasts C2C12 (hereinafter referred to as C2C12 cells) of the C2C12 cell strain (ATCC CRL-1772™) purchased from the American Type Culture Collection (ATCC®).
# Culture medium: Dulbecco's modified Eagle's medium, purchased from Gibco, US, Gat.11965-092. 10% of fetal bovine serum (FBS), purchased from Gibco, US, Gat.10437-028. 1% of antibiotic, purchased from Gibco, US, Gat.15240-062.
# Reagents: 10×DPBS buffer (purchased from Gibco, Gat 14200-075), trypan blue dead cell dye (purchased from Lonza, Cat 17-942E), trypsin-EDTA (purchased from Gibco, Cat. 15400-054), and cell proliferation Click-iT™ Plus EdU kit (Invitrogen; Cat. C10632).
# First, 1×10^5 cells were inoculated into each well of a 6-well culture plate to culture at 37° C. for 24 h. The cultured cells were divided into three groups: an experimental group, a blank group, and a control group.
# Blank group: only a culture medium was added to culture at 37° C. for 24 h.
# Control group: 10% of PBS was added to culture at 37° C. for 24 h, which was used as a positive control group. […]
# Next, the specific reagent EdU from the cell proliferation kit was added to culture for 2 h. […] Finally, the fluorescence signal of the to-be-tested cell solution in each well was measured by the flow cytometry (under 488 nm of excitation light and 530/30 nm of scattered light), and the quantity of cells was calculated. […]
smiles,measurement,setting,value
"O[C@H]1[C@H](O)[C@@H](O)[C@H](O)[C@@H](O)[C@H]1O [TCI-GHU-01, myo-inositol]",activity of mitochondria in skeletal muscle cells (small light spots around the nuclei),mouse myoblasts C2C12 [1],higher than that of the blank group
same,increase of quantity of skeletal muscle cells,"mouse myoblasts C2C12 [2]; 100 nM, vs blank group",48.2%
same,quantity of skeletal muscle cells relative to the blank group,"mouse myoblasts C2C12 [2]; TCI-GHU-01 100 nM, positive control 10%, blank group regarded as 100%",148.2%
